ChEMBL document CHEMBL5608113, “Targeting of CAF-induced therapy resistance in CRC organoid-stroma co-cultures” (2024)

Tests used:
Format in all cases: functional, Homo sapiens
Details in all cases: Homo sapiens, read-out: Cell Viability; for viability at 1 µM: Concentration 1 uM; for viability at 10 µM: Concentration 10 uM
[1] = system: Colon cancer organoid; assay: Targeting of F14 CAF-induced therapy resistance in O14 CRC organoid-stroma co-culture. Cell viability is reported with Gefitinib.
[2] = system: Colon cancer organoid; assay: Targeting of F14 CAF-induced therapy resistance in O23 CRC organoid-stroma co-culture. Cell viability is reported with SN-38.
[3] = system: Colon cancer organoid; assay: Targeting of F14 CAF-induced therapy resistance in O23 CRC organoid-stroma co-culture. Cell viability is reported without Gefitinib.
[4] = system: Colon cancer organoid; assay: Targeting of F14 CAF-induced therapy resistance in O23 CRC organoid-stroma co-culture. Cell viability is reported with Gefitinib.
[5] = system: Colon cancer organoid; assay: Targeting of F14 CAF-induced therapy resistance in O14 CRC organoid-stroma co-culture. Cell viability is reported without Gefitinib.

Row | Structure (SMILES) | viability at 1 µM [1] [%] | viability at 1 µM [2] [%] | viability at 1 µM [3] [%] | viability at 1 µM [4] [%] | viability at 1 µM [5] [%] | viability at 10 µM [1] [%] | viability at 10 µM [2] [%] | viability at 10 µM [3] [%] | viability at 10 µM [4] [%] | viability at 10 µM [5] [%]
1 | O=C(Nc1ccc(-n2nc(-c3cccnc3)cc2C(F)(F)F)cn1)c1ccc(-c2ccccc2)c(F)c1 [BI 2049] | 24.6 | 97.9 | 103 | 32.7 | 132 | – | – | – | – | –
2 | COc1cccc2c1c(O)c(C(=O)N(C)c1ccc(C(F)(F)F)cc1)c(=O)n2C [TASQUINIMOD] | – | – | – | – | – | 61.6 | 83 | 99.2 | 47.3 | 80.1
3 | Cn1cc(CNCC2CCN(c3ncc(C(=O)NO)cn3)CC2)c2ccccc21 [QUISINOSTAT] | – | – | – | – | – | 0.22 | 1.67 | 11.7 | 6.71 | 0.685
4 | CN(C)[C@H]1CN(C2CCc3cccc(F)c32)C[C@@H]1c1ccc(N2CCN(S(C)(=O)=O)CC2)cc1 (stereo not given in full) | – | – | – | – | – | 68.1 | 112 | 81.8 | 107 | 70.2
5 | COc1ccc2c(c1)O[C@H](c1ccc(OC)c(OC)c1)C[C@@H]2NC(=O)C1(c2ccc3c(c2)OC(F)(F)O3)CC1 [A-1596584] | – | – | – | – | – | 48.4 | 59.1 | 111 | 48.5 | 74.5
6 | CC1=CC(C)=[N+]2C1=C(CCCCc1cn(CC(=O)N3CCc4nc(NC(=O)[C@H]5CCN(C#N)C5)sc4C3)nn1)c1c(C)cc(C)n1[B-]2(F)F | – | – | – | – | – | 31.6 | 52.6 | 101 | 36.4 | 115
7 | COc1cc(-c2cn([C@H]3CCc4ccccc4N(CC(F)(F)F)C3=O)nn2)ccc1-n1ccc(C)n1 | – | – | – | – | – | 41.1 | 48.6 | 81.1 | 38.9 | 113
8 | C[C@H](c1ccnc(Nc2nc3ccc(-c4cc(N(C)C)ncn4)cc3[nH]2)c1)N1CCN(C(=O)CC(F)(F)F)CC1 [BAY-985] | – | – | – | – | – | 77.2 | 80.5 | 160 | 84.3 | 163
9 | CC(C)Oc1ccc(-c2c[nH]cc2CN(C)CCN)cc1 | – | – | – | – | – | 31.6 | 77 | 132 | 47.4 | 25.7
10 | Cc1cc2c(cc1N1C(=O)c3cccc4c(CCCO)ccc(c34)C1=O)n(C)c(=O)n2C | – | – | – | – | – | 43.3 | 81.8 | 150 | 71.7 | 47.7
11 | NS(=O)(=O)c1cc(NC(=O)Cc2ccccc2)ccc1Oc1cccc(Cl)c1 [BAY-1797] | – | – | – | – | – | 51.7 | 60.6 | 114 | 48.6 | 124
12 | O=C(c1ccc(F)cc1)N1CC(COc2ccc(Br)cc2)(C(=O)O)C1 [PF-04475866] | 36.4 | 85.2 | 118 | 66.8 | 159 | – | – | – | – | –
13 | Cc1c(C(=O)O)cc(-c2ccc(C3CCNCC3)cc2)c2ccc(-c3ccc(C(F)(F)F)cc3)cc12 | – | – | – | – | – | 38.7 | 76.8 | 143 | 48.3 | 64.2
14 | O=C1CCc2cc(Nc3cc(OC4CCOCC4)c([N+](=O)[O-])cc3Cl)ccc2N1 | – | – | – | – | – | 75.9 | 60.5 | 117 | 57.9 | 112
15 | C[C@H](c1ccc(F)cc1)N(Cc1cccc(C(=O)O)c1)C(=O)c1cnc2ccccc2c1 [PF-05105679] | – | – | – | – | – | 61.2 | 98.3 | 104 | 45.6 | 126
16 | CC1=C(C#N)C(c2ccc3c(c2)c(NC(=O)c2ccccc2C)nn3C)C(C#N)=C(C)N1 [BAY-974] | – | – | – | – | – | 48.3 | 57.9 | 103 | 40.1 | 109
17 | O=C(NC[C@H](O)CN1CCc2ccccc2C1)c1ccnc(NC2CCC2)c1 | – | – | – | – | – | 31.9 | 50.6 | 83.1 | 43.2 | 32.6
18 | Cc1c(NC(=O)COc2ccc(Cl)cc2C(=O)c2cc(F)cc(C(F)(F)F)c2)ccc(C(=O)O)c1F [BI 2540] | – | – | – | – | – | 64.5 | 67.8 | 132 | 79.4 | 124
19 | c1ccc([C@@H]2C[C@H]2NC2CCNCC2)cc1 | – | – | – | – | – | 58.2 | 68.3 | 79.5 | 68 | 114
